# How the values were obtained:
# human 5-HT2C receptors = molecular target: T1, human 5-HT2C receptors (Homo sapiens, UniProt P28335); experiment: In vitro test of agonistic potency on human 5-HT2C receptor (change in intracellular Ca2+); format: cell-based; conditions: CHO-K1 cells expressing recombinant human 5-HT2C receptors; intracellular Ca2+ (Fluo-4)
# T1 construct: expressed in transfected cells; host or cells: CHO-K1 cells
# T1 sequence (P28335 33-458): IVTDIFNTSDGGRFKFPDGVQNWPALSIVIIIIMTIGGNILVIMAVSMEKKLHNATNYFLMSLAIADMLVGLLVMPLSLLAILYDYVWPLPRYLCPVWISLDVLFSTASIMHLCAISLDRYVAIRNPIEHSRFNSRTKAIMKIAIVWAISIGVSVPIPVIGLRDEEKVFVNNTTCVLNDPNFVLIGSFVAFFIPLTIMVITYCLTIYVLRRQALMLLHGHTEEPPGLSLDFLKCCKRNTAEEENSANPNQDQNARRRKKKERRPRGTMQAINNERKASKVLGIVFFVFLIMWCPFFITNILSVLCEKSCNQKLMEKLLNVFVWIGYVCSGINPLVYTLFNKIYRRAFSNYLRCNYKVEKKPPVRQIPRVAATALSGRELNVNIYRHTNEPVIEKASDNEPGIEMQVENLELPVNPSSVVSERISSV
# urethral resistance = experiment: Urethral resistance (LPP) during intravesical pressure rise by electrical stimulation of rat abdominal muscle; format: in vivo; conditions: mean ± SEM; for LPP Post: 30 minutes after administration; for LPP Increase: Post minus Pre; for LPP Pre: before administration
# Method: Fifty six female rats of Sprague-Dawley strain (hereinafter, referred to as “SD strain”) were used. The rats were anesthetized with urethane, and their spinal cord was transected at the T8-T9 (the eighth thoracic cord—the ninth thoracic cord) level for the elimination of reflex voiding. Isoflurane inhalation was added, if necessary. After opening of the abdomen, a catheter (PE-100) was inserted into the bladder. In order to secure reduced urethral resistance, unilateral nerve to iliococcygeus and pubococcygeus muscles was transected. For intraduodenal administration, another catheter (PE-50) was inserted into the duodenum in advance. The abdominal muscle and skin were each closed with sutures. Two (right and left) sites of abdominal skin near the diaphragm were cut to expose abdominal muscle. The bladder was emptied through the catheter, followed by the injection of 0.2 to 0.3 mL of 0.1% Evans blue solution. Change in intravesical pressure was recorded using the bladder catheter via a pressure transducer, an electric signal amplifier, and an analog-to-digital converter. While change in intravesical pressure was recorded, the presence or absence of fluid leakage from the urethral orifice was observed under the electrical stimulation of the exposed abdominal muscle using an electrical stimulator and an isolator. […] The peak of the intravesical pressure during the stimulation of the abdominal muscle was measured, and the lowest pressure at which the fluid leakage was observed among the trials was defined as leak point pressure (hereinafter, referred to as “LPP”) for the electrical abdominal muscle stimulation method and used as an index for urethral resistance. Each drug was evaluated for its effect by comparing LPP before drug administration with that after drug administration. […] The drugs were suspended in 0.5% methylcellulose solution (MC). […] LPP was measured again 30 minutes after administration. Regarding change in LPP before and after drug administration, the differences between the mean values of the drug-treated and vehicle groups were analyzed by the one-tailed Williams' test.
# [1] = test system: urethral resistance increasing effect of Compound A′; experiment: Influence of antagonists (SB 242084, methiothepin) on urethral resistance increasing effect of Compound A′ in rats; format: in vivo, rat; conditions: mean ± SEM; for LPP Post: 30 minutes after Compound A′; for LPP Increase: Post minus Pre; for LPP Pre: before administration
# Method: Ninety female rats of SD strain were used. […] Isoflurane inhalation was added during the surgery, if necessary. In the experiment with intrathecal administration, the dura mater was exposed by laminectomy and then partially opened by incision, through which a catheter (PE-10) filled with saline was then implanted at the level of the L6-S1 site, followed by the closing of the incision. After opening of the abdomen, a catheter (PE-90) was inserted into the bladder. In order to secure reduced urethral resistance, unilateral nerve to iliococcygeus and pubococcygeus muscles was transected. For intraduodenal administration, another catheter (PE-50) was inserted into the duodenum in advance. The abdominal muscle and skin were each closed with sutures. Two (right and left) sites of abdominal skin near the diaphragm were cut to expose abdominal muscle. The bladder was emptied through the catheter, followed by the injection of 0.2 to 0.3 mL of Evans blue solution. Change in intravesical pressure was recorded using the bladder catheter via a pressure transducer, an electric signal amplifier, and an analog-to-digital converter. While change in intravesical pressure was recorded, the presence or absence of fluid leakage from the urethral orifice was observed under the electrical stimulation of the exposed abdominal muscle using an electrical stimulator and an isolator. […] The peak of the intravesical pressure during the stimulation of the abdominal muscle was measured, and the lowest pressure at which the fluid leakage was observed among the trials was defined as LPP for the electrical abdominal muscle stimulation method. In order to examine whether the urethral resistance increasing effect of Compound A′ is based on its agonistic potency on 5-HT2C receptors, SB 242084, methiothepin, or a vehicle was intravenously administered, and Compound A′ or a vehicle was intraduodenally administered 5 minutes later. SB 242084 was dissolved in a mixed solution of N,N-dimethylacetamide and polyethylene glycol 400 (1:1) and administered at 0.03 mg/0.5 mL/kg, 0.1 mg/0.5 mL/kg and 0.3 mg/0.5 mL/kg. Methiothepin was dissolved in saline and administered at 0.03 mg/0.5 mL/kg. 0.1 mg/0.5 mL/kg and 0.3 mg/0.5 mL/kg. Compound A′ was suspended in 0.5% MC and administered at 3 mg/mL/kg. LPP was measured again 30 minutes after Compound A′ administration. In order to examine where Compound A′ works in the body to increase urethral resistance, the blocking of the effect of Compound A′ was confirmed by blocking the functions of Compound A′ by giving methiothepin at a particular site in the body. Particularly, in the experiment with intrathecal administration, methiothepin or a vehicle was intrathecally administered, and Compound A′ or a vehicle was intraduodenally administered 5 minutes later. Methiothepin was dissolved in saline and 20 μL of the obtained solution was administered. Compound A′ was suspended in 0.5% MC and administered at 3 mg/mL/kg. LPP was measured again 30 minutes after Compound A′ administration.
# Regarding change in LPP before and after drug administration, the differences between the mean values of the Compound A′-treated and vehicle-treated groups were analyzed by the Student's t test or the Welch's test. In order to analyze the influence of the antagonists on the effect of Compound A′, the differences between the mean values of the SB 242084- or methiothepin- and Compound A′-administered group and the vehicle- and Compound A′-administered group were analyzed by the one-tailed Williams' test.
# [2] = test system: urethra-closing reflex response; experiment: Urethra-closing reflex response induced by intravesical pressure rise in rats; format: in vivo, rat; conditions: 3 mg/kg i.d., mean ± SEM
# Method: Thirty-two female rats of SD strain were used. The rats were anesthetized with urethane. Isoflurane inhalation was added during the surgery, if necessary. Their spinal cord was transected at the T8-T9 (the eighth thoracic cord—the ninth thoracic cord) level to eliminate the reflex voiding and to inhibit the transition from the urine storage phase to the voiding phase in the voiding cycle. After opening of the abdomen, the bladder neck was ligated with suture, and a catheter (PE-100) was inserted into the bladder. The bladder catheter was connected to a pressure transducer and a saline-containing reservoir via three-way stopcocks. A microtip transducer catheter was inserted from the urethral orifice toward the bladder so that its transducer was inserted into the urethra. Local change in pressure within the urethra (intraurethral pressure) was recorded via an electric signal amplifier and an analog-to-digital converter. […] Then, the reservoir was brought back to the original position to adjust the intravesical pressure to its baseline. Such change in intraurethral pressure induced by intravesical pressure rise was repeatedly measured, and the mean value from the last 2 trials was used as a Pre value. The vehicle used was 0.5% MC. […] Thirty minutes after administration, the change in intraurethral pressure induced by intravesical pressure rise was measured again and used as a Post value. The average value before intravesical pressure rise was subtracted from the average value during intravesical pressure rise, and the subtracted value was used as urethra-closing reflex response. The ratio of the Post value to the Pre value was calculated.
# [3] = SB 242084 0 mg/kg i.v. (vehicle) + Compound A′ 3 mg/kg i.d.
# [4] = methiothepin 0 μg intrathecal (vehicle) + Compound A′ 3 mg/kg i.d.
# [5] = methiothepin 0 mg/kg i.v. (vehicle) + Compound A′ 3 mg/kg i.d.
smiles,measurement,setting,value
"CC(C)N(C)c1cnc2c(n1)OCCNC2.Cl [Compound A′, N-methyl-N-(1-methylethyl)-6,7,8,9-tetrahydropyrazino[2,3-f][1,4]oxazeine-3-amine]",EC50,human 5-HT2C receptors,2.6 nM
same,LPP Post,urethral resistance; 0.3 mg/kg i.d.,55.0 ± 5.4 cmH2O
same,LPP Increase,urethral resistance; 0.3 mg/kg i.d.,7.8 ± 3.2 cmH2O
same,LPP Pre,urethral resistance; 0.3 mg/kg i.d.,47.2 ± 5.7 cmH2O
same,LPP Post,urethral resistance; 1 mg/kg i.d.,61.5 ± 4.9 cmH2O
same,LPP Increase,urethral resistance; 1 mg/kg i.d.,14.2 ± 2.7 cmH2O
same,LPP Pre,urethral resistance; 1 mg/kg i.d.,47.3 ± 5.0 cmH2O
same,LPP Post,urethral resistance; 3 mg/kg i.d.,77.3 ± 8.1 cmH2O
same,LPP Increase,urethral resistance; 3 mg/kg i.d.,29.7 ± 5.5 cmH2O
same,LPP Pre,urethral resistance; 3 mg/kg i.d.,47.6 ± 3.1 cmH2O
same,LPP Post,[1]; [3],72.4 ± 9.5 cmH2O
same,LPP Increase,[1]; [3],26.4 ± 5.9 cmH2O
same,LPP Pre,[1]; [3],46.0 ± 5.1 cmH2O
same,LPP Post,[1]; [4],72.1 ± 5.7 cmH2O
same,LPP Increase,[1]; [4],31.8 ± 6.2 cmH2O
same,LPP Pre,[1]; [4],40.3 ± 5.6 cmH2O
same,LPP Post,[1]; [5],61.0 ± 8.3 cmH2O
same,LPP Increase,[1]; [5],15.1 ± 4.0 cmH2O
same,LPP Pre,[1]; [5],45.9 ± 4.4 cmH2O
same,Urethra-closing reflex response Post,"[2]; 30 minutes after administration, intravesical pressure rise by 50 cm H2O",10.40 ± 1.78 cmH2O
same,Urethra-closing reflex response Pre,"[2]; before administration, intravesical pressure rise by 50 cm H2O",3.58 ± 0.42 cmH2O
same,Urethra-closing reflex response Ratio (Post/Pr),[2]; ratio of Post value to Pre value,2.82 ± 0.29
